From PubChem BioAssay (NCI)
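A five-concentration, 48-hour dose response in 96-well plates underlies each endpoint, interpolated linearly between surrounding concentrations. GI50 marks 50% less growth. TGI: total growth inhibition.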 Where a SMILES comes first, the peptide text is derived from it.

How the values were obtained:
Experiment in all cases: NCI-60 cell line screen, 48 h
CCRF-CEM leukemia = tested on: CCRF-CEM leukemia
HOP-92 NSCLC = tested on: HOP-92 NSCLC
MOLT-4 leukemia = tested on: MOLT-4 leukemia
NCI-H23 lung = tested on: NCI-H23 lung
NCI-H522 lung = tested on: NCI-H522 lung
SNB-19 CNS = tested on: SNB-19 CNS
SR leukemia = tested on: SR leukemia
SW-620 colon = tested on: SW-620 colon
UO-31 renal = tested on: UO-31 renal
OVCAR-4 ovarian = tested on: OVCAR-4 ovarian

Row | SMILES | GI50 (CCRF-CEM leukemia) | TGI (CCRF-CEM leukemia) | GI50 (HOP-92 NSCLC) | TGI (HOP-92 NSCLC) | GI50 (MOLT-4 leukemia) | TGI (MOLT-4 leukemia) | GI50 (NCI-H23 lung) | TGI (NCI-H23 lung) | GI50 (NCI-H522 lung) | TGI (NCI-H522 lung) | GI50 (SNB-19 CNS) | TGI (SNB-19 CNS) | GI50 (SR leukemia) | TGI (SR leukemia) | GI50 (SW-620 colon) | TGI (SW-620 colon) | GI50 (UO-31 renal) | TGI (UO-31 renal) | TGI (OVCAR-4 ovarian) | GI50 (OVCAR-4 ovarian)
1 | O=C(N/N=C\c1ccc(N(CCCl)CCCl)cc1)c1cccnc1 | 5.91 µM | > 100 µM | 30.6 µM | > 100 µM | 6.95 µM | > 100 µM | 15.8 µM | > 100 µM | 29 µM | > 100 µM | 45 µM | > 100 µM | 3.1 µM | > 100 µM | > 100 µM | > 100 µM | 14.1 µM | > 100 µM | – | –
2 | C/C=C(\C)C(=O)OC1C2C(C)=CC(=O)C(O)C2(C)C2C3(O)OCC24C1OC(=O)C(OC(C)=O)C4C(C)C3O (stereo unspecified) | – | 0.244 µM | – | 0.0508 µM | – | 0.75 µM | – | 0.266 µM | – | – | – | – | – | – | – | 0.525 µM | – | 0.887 µM | 0.413 µM | –
3 | CCOC(=O)c1ccc(Nc2nc3ccccc3n3cccc23)cc1 | – | 0.108 µM | – | > 100 µM | – | > 100 µM | – | > 100 µM | – | > 100 µM | – | > 100 µM | – | > 100 µM | – | > 100 µM | – | > 100 µM | – | –
4 | CC(C)(C)c1ccc(NS(=O)(=O)c2ccc(N)cc2)cc1 | – | 40.2 µM | – | – | – | 34.5 µM | – | 67.9 µM | – | 38.7 µM | – | > 100 µM | – | – | – | 69 µM | – | 73.5 µM | > 100 µM | –
5 | COc1cc2c(c(OC)c1OC)-c1ccc(OC)c(=O)cc1C(NC(=O)CCCCCNc1ccc(N=[N+]=[N-])cc1[N+](=O)[O-])CC2 (stereo unspecified) | – | – | – | – | – | < 0.01 µM | – | > 100 µM | – | – | – | – | – | < 0.01 µM | – | > 31.6 µM | – | – | 16.2 µM | –
6 | CC(C)(C)OC(=O)NCC(c1c[nH]c2cc(Br)ccc12)c1c[nH]c2cc(Br)ccc12 | – | > 100 µM | – | 28.6 µM | – | > 100 µM | – | 34.2 µM | – | 32.7 µM | – | 46.2 µM | – | > 100 µM | – | > 100 µM | – | 34.5 µM | 32.9 µM | –
7 | N#C[S-].[Ce+3].c1ccc(-c2ccccn2)nc1.c1ccc(-c2ccccn2)nc1.c1ccc(-c2ccccn2)nc1 | – | – | – | – | – | – | 26.9 µM | 97.3 µM | – | – | 45.6 µM | > 100 µM | 25.7 µM | > 100 µM | 38.9 µM | > 100 µM | 4.46 µM | 28.7 µM | > 100 µM | 13.2 µM
8 | COC(Cc1cc(C(O)(c2ccc(C(C)(C)C)cc2)c2cc(CC(OC)(c3cc(C(OC)(c4ccc(C(C)(C)C)cc4)c4ccc(C(C)(C)C)cc4)c(C)cc3C)c3cc(C(OC)(c4ccc(C(C)(C)C)cc4)c4ccc(C(C)(C)C)cc4)c(C)cc3C)c(C)cc2C)c(C)cc1C)(c1cc(C(OC)(c2ccc(C(C)(C)C)cc2)c2ccc(C(C)(C)C)cc2)c(C)cc1C)c1cc(C(OC)(c2ccc(C(C)(C)C)cc2)c2ccc(C(C)(C)C)cc2)c(C)cc1C | – | > 75 µM | – | > 75 µM | – | > 75 µM | – | > 75 µM | – | – | – | > 75 µM | – | > 75 µM | – | > 75 µM | – | > 75 µM | > 75 µM | –
9 | O=C1NCN(c2ccccc2)C12CCN(CCCN1CCN(CCOC(c3ccccc3)c3ccccc3)CC1)CC2 | – | 3.59 µM | – | 5.54 µM | – | 6.4 µM | – | 7.46 µM | – | 4.66 µM | – | 7.77 µM | – | 2.04 µM | – | 5.95 µM | – | 4.39 µM | 7.47 µM | –
10 | CC(=O)NC(CS)C(=O)NC(CO)C(=O)NC(CO)C(=O)NC(Cc1c[nH]c2ccccc12)C(=O)N1CCCC1C(=O)NC(CO)C(=O)NC(Cc1c[nH]c2ccccc12)C(=O)NC(Cc1c[nH]cn1)C(=O)NC(CO)C(=O)NC(Cc1c[nH]c2ccccc12)C(=O)NCC(=O)NCC(=O)NC(C)C(=O)NC(CCC(N)=O)C(=O)NC(CCCCN)C(=O)NC(C)C(=O)NC(CCCNC(=N)N)C(=O)NC(CCCCN)C(N)=O (stereo unspecified) (Ac-CSSWPSWHSWGGAQKARK-NH2; configuration not given here) | – | > 50 µM | – | > 50 µM | – | > 50 µM | – | 48.8 µM | – | > 50 µM | – | > 50 µM | – | 43.4 µM | – | > 50 µM | – | > 50 µM | > 50 µM | –
11 | COc1nc2ccc(Cl)c(C(O)c3ccccc3)c2nc1OC (stereo unspecified) | – | 29.5 µM | – | 60.6 µM | – | 46.4 µM | – | 61.2 µM | – | 37.8 µM | – | > 100 µM | – | 27.3 µM | – | 82.7 µM | – | > 100 µM | > 100 µM | –
12 | COc1ccccc1N1C(=O)CSC1c1cccc(Oc2ccccc2)c1 (stereo unspecified) | – | > 100 µM | – | 26.5 µM | – | 64.8 µM | – | 52.9 µM | – | 34.7 µM | – | 56.1 µM | – | 70.5 µM | – | 56.6 µM | – | 32.9 µM | 39.6 µM | –
13 | COC1=CC(c2ccc[nH]2)=N/C1=C\c1[nH]c(C)c(CC(=O)NCc2ccccc2)c1C | – | – | 1.4 µM | 2.94 µM | – | – | – | – | – | – | – | – | – | – | – | – | 1.64 µM | 3.16 µM | 2.93 µM | 1.35 µM
14 | Brc1ccc2nc(-c3cccs3)nc(N3CCN(c4ccccc4)CC3)c2c1 | – | – | – | > 100 µM | – | – | – | > 100 µM | – | > 100 µM | – | > 100 µM | – | > 100 µM | – | > 100 µM | – | > 100 µM | > 100 µM | –
15 | CCOC(=O)NC(=O)c1cn(CCN(CCO)C(=O)NCCCCCCNC(=O)N(CCO)CCn2cc(C(=O)NC(=O)OCC)c(=O)[nH]c2=O)c(=O)[nH]c1=O | – | > 100 µM | – | > 100 µM | – | > 100 µM | – | > 100 µM | – | > 100 µM | – | > 100 µM | – | – | – | > 100 µM | – | > 100 µM | > 100 µM | –
16 | NS(=O)(=O)c1ccc(N=Nc2ccc(O)cc2)cc1 | – | > 100 µM | – | > 100 µM | – | > 100 µM | – | > 100 µM | – | > 100 µM | – | > 100 µM | – | > 100 µM | – | > 100 µM | – | > 100 µM | > 100 µM | –
17 | CC1=C/C(=N\NS(=O)(=O)c2ccc([N+](=O)[O-])cc2)CC(C)(C)C1 | – | > 100 µM | – | 75.6 µM | – | > 100 µM | – | > 100 µM | – | > 100 µM | – | > 100 µM | – | > 100 µM | – | > 100 µM | – | > 100 µM | – | –
18 | N#CC1(C#N)C(=O)c2ccncc2C1=O | – | > 100 µM | – | > 100 µM | – | – | – | > 100 µM | – | > 100 µM | – | > 100 µM | – | > 100 µM | – | > 100 µM | – | > 100 µM | > 100 µM | –
19 | COc1cc(-c2n/c(=C\c3c(O)[nH]c4ccccc34)cc3c2=Nc2ccccc2-3)ccc1F | 4.75 µM | > 100 µM | 3.29 µM | 19.9 µM | 9.61 µM | 97.9 µM | 2.83 µM | 17.6 µM | 8.79 µM | 51.6 µM | 4.94 µM | 24.3 µM | 2.05 µM | 20.2 µM | 4.15 µM | 86.7 µM | 25.6 µM | > 100 µM | 6.4 µM | 2.32 µM
20 | CN(CCO)CCC1COc2ccccc2O1 (stereo unspecified) | – | > 10 µM | – | – | – | > 10 µM | – | > 10 µM | – | > 10 µM | – | > 10 µM | – | > 10 µM | – | > 10 µM | – | > 10 µM | > 10 µM | –
21 | O=C(CSc1nc2ccc(I)cc2c(=O)n1Cc1ccccc1)NNC(=S)Nc1ccccc1 | – | > 100 µM | – | > 100 µM | – | > 100 µM | – | > 100 µM | – | > 100 µM | – | > 100 µM | – | 23.3 µM | – | > 100 µM | – | – | > 100 µM | –
22 | COc1c(O)cc2c(c1O)C(=O)C(Cc1ccc(O)cc1)CO2 (stereo unspecified) | – | – | – | > 100 µM | – | > 100 µM | – | > 100 µM | – | > 100 µM | – | > 100 µM | – | > 100 µM | – | > 100 µM | – | > 100 µM | > 100 µM | –
23 | O=C([O-])c1ccccc1Nc1ccccc1C(=O)[O-].[OH3+].[Zn+2] | – | 61.6 µM | – | 45.7 µM | – | 99.8 µM | – | 28.9 µM | – | 18.2 µM | – | 30.7 µM | – | > 63.7 µM | – | > 54.8 µM | – | > 63.1 µM | 39.1 µM | –
